In patent publication US8114850B2, “Antiproliferative activity of G-rich oligonucleotides and method of using same to bind to nucleolin” (Advanced Cancer Therapeutics, LLC, priority 1999, dated 2012):

Legend:
[1] = target: T1, TEL-binding protein (GRO-binding protein/nucleolin, MDA-MB-231 nuclear extracts) (Homo sapiens, UniProt P19338); experiment: Competitive EMSA, labeled TEL and MDA-MB-231 nuclear extracts; conditions: 10 nM unlabeled oligonucleotide; […]
T1 construct: Nuclear and cytoplasmic extracts from MDA-MB-231 cells were prepared using the protocol described in F. M. Ausubel et al; endogenous in cells; host or cells: MDA-MB-231 nuclear extract, prepared in house

[2] = target: T2, GRO-binding protein/nucleolin (HeLa nuclear extracts) (Homo sapiens, UniProt P19338); experiment: UV cross-linking of oligonucleotides to HeLa nuclear extracts; conditions: labeled oligonucleotide with HeLa nuclear extracts; FIG. 6C
T2 construct: HeLa nuclear extracts used in EMSAs were purchased from Promega Inc. (bandshift grade); host or cells: HeLa nuclear extract (bandshift grade), purchased
Protocol: For the UV crosslinking experiments, samples were incubated as described above (EMSA). They were then placed on ice and irradiated at 5 cm from the source using the “autocross link” function of a Stratagene UV Stratalinker. Following irradiation, samples were electrophoresed under denaturing conditions on a 8% polyacrylamide-SDS gel using a standard Tris glycine buffer and visualized by autoradiography.
To determine the approximate molecular weight of the protein involved in complex A, and to confirm that competition for this complex results from direct binding of the protein to oligonucleotides, a UV cross-linking study was conducted. 5′-Labeled oligonucleotides and HeLa nuclear extracts were incubated alone or in the presence of unlabeled competitor oligonucleotides.
The samples were then irradiated with UV light resulting in cross-link formation between protein residues and thymidines in the oligonucleotide. The protein was thus radiolabeled and could be detected on a SDS-polyacrylamide gel.

[3] = Detection of G-quartets by UV thermal denaturation/renaturation; type: physicochemical; conditions: absorbance at 295 nm; for G-quartet formation (UV annealing curve): FIG. 4
Protocol: Oligonucleotides were resuspended in Tm buffer (20 mM Tris HCl, pH 8.0, 140 mM KCl, 2.5 mM MgCl2) at a concentration such that A260=0.6 (molar concentrations ranged from […]). Samples were annealed by boiling for five minutes and allowing to cool slowly to room temperature and overnight incubation at 4° C. Thermal denaturation/renaturation experiments were carried out using an Amersham Pharmacia Biotech Ultrospec 2000 instrument equipped with a Peltier effect heated cuvette holder and temperature controller (Amersham Pharmacia Biotech). Absorbance at 295 nm was monitored over a temperature range of 25-95 or 20-90° C. at a heating/cooling rate of 0.5° C./min. To investigate the formation of G-quartet structures by the G-rich oligonucleotides, a U.V. melting technique described by […] et al. (1998) FEBS Lett. 435, 74-78 was used. This method relies on the fact that dissociation of G-quartets leads to a decrease in absorbance at 295 nm and is reported to give a more reliable indication of intramolecular G-quartet formation than measurement at 260 nm.

[4] = test system: MDA-MB-231 breast cancer cells; experiment: MTT cell growth assay, MDA-MB-231 cells; type: cell-based, human
Protocol: Cells were plated at low density ([…] cells per well, depending on cell line) in the appropriate serum-supplemented medium in 96-well plates (one plate per MTT assay time point) and grown under standard conditions of cell culture. The following day (day 1) oligonucleotide, or water as control, was added to the culture medium to give a final concentration of 15 uM. Further oligonucleotide, equivalent to half the initial dose, was added to the culture medium on days two, three and four. Cells were assayed using the MTT assay (Morgan (1998) Methods. Mol. Biol. 79, 179-183) on days one, three, five, seven and nine after plating. The culture medium was not changed throughout the duration of the experiment (which was the time required for untreated cells to grow to confluence). Experiments were performed in triplicate and bars represent the standard error of the data. For the experiment shown in FIG. 7A, MDA-MB-231 breast cancer cells (5×10^2 cells per well) were plated in a 96-well plate. After twenty-four hours, a single dose of oligonucleotide, or equal volume of PBS as a control, was added to the culture medium to a final concentration of 10 uM. Viable cells were assessed seven days after plating using the MTT assay. For the experiment using 3′-unmodified oligonucleotides (FIG. 7D), serum-supplemented medium was replaced by serum-free medium containing oligonucleotide (or serum-free medium alone in control wells). After incubation at 37° C. for four hours, fetal calf serum (Life Technologies, Inc.) was added to the medium to give 10% v/v.

[5] = test system: MDA-MB-231 breast cancer cells; experiment: Chemotherapeutic agent and GRO combination, MTT assay; type: cell-based, human; conditions: cisplatin 0.5 µg/ml, GR029A 8 uM added after two hours, MTT after six days
Protocol: Cisplatin (in 1% DMSO solution to give a final concentration of […]) was added to the medium of MDA-MB-231 breast cancer cells growing in culture. After two hours, GR029A (in PBS solution to give a final concentration of 8 uM) was added to the medium. After six days, the relative number of viable cells was determined using the MTT assay. Cells treated with GR029A alone received an appropriate volume of 1% DMSO in place of cisplatin. Cells treated with cisplatin alone received an appropriate volume of PBS in place of GR029A.

[6] = target: T3, 106 kDa nuclear protein (p106, GRO-binding protein/nucleolin) (Homo sapiens, UniProt P19338); experiment: Southwestern blot of HeLa nuclear extracts; conditions: 32P-labeled oligonucleotide, 4° C.; FIG. 6D
T3 construct: HeLa nuclear extracts used in EMSAs were purchased from Promega Inc. (bandshift grade); host or cells: HeLa nuclear extract (bandshift grade), purchased
Protocol: Nuclear extracts were electrophoresed on a 8% polyacrylamide-SDS gel and transferred to polyvinylidene difluoride (PVDF) membrane by electroblotting using a Tris glycine/methanol (10% v/v) buffer. Immobilized proteins were denatured and renatured by washing for thirty minutes at 4° C. with 6 M guanidine. HCl followed by washes in 1:1, 1:2 and 1:4 dilutions of 6M guanidine in HEPES binding buffer (25 mM HEPES pH 7.9, 4 mM KCl, 3 mM MgCl2). The membrane was blocked by washing for one hour in a 5% solution of non-fat dried milk (NDM) in binding buffer.
Hybridization of the labeled oligonucleotide (1-4×10^6 cpm) took place for two hours at 4° C. in HEPES binding buffer supplemented with 0.25% NDM, 0.05% Nonidet P […] salmon sperm DNA and […] of an unrelated, mixed sequence 35-mer oligonucleotide (5′-[…] CTTCCTTCCTCTCCA-3′SEQ ID No: 19). Membranes were washed in binding buffer and visualized by autoradiography.
The molecular weight of the nuclear protein was more accurately determined by Southwestern blotting. HeLa nuclear extracts were electrophoresed on an 8% polyacrylamide-SDS gel and transferred to a PVDF membrane. The membrane was blocked and cut into strips. Each strip was incubated at 4° C. with a 32P-labeled G-rich oligonucleotide in the presence of unrelated unlabeled double stranded and single stranded DNA to block non-specific binding.

T3 sequence (P19338 whole entry): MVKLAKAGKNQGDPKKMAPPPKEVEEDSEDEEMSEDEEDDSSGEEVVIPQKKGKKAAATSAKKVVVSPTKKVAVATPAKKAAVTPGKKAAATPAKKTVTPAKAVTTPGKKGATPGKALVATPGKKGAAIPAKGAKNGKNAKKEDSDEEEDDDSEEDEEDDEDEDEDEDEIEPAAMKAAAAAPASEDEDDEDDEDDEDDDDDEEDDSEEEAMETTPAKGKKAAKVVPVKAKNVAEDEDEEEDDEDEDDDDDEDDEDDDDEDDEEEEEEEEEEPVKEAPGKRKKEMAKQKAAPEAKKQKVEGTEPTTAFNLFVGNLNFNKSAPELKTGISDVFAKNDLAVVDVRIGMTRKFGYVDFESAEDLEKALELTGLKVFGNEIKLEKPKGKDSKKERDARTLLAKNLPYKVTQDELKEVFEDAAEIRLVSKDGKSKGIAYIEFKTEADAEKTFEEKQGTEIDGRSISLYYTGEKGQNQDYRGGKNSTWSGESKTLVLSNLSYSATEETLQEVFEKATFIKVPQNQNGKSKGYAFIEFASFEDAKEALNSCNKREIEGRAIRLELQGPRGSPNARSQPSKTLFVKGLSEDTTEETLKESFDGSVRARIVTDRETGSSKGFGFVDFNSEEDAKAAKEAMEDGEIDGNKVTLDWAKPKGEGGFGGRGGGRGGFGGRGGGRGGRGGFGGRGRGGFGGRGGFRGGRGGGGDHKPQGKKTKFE
T1 sequence (P19338 whole entry): as above
T2 sequence (P19338 whole entry): as above

Compound | competition for protein binding in competitive EMSA [1] | UV cross-linked protein complex (approximately 100 kDa) [2] | G-quartet formation (UV annealing curve) [3] | melting temperature of G-quartet transition ([3]; Tm buffer pH 8.0, 140 mM KCl, 0.5° C./min) | growth of MDA-MB-231 cells, unmodified oligonucleotides ([4]; 10 uM in serum-free medium 4 h, then 10% fetal calf serum, day 7, FIG. 7D) | growth modulation [5] | hybridization to protein band at 106 kDa (Southwestern blot) [6] | antiproliferative activity, MDA-MB-231 ([4]; single 10 uM dose, FIG. 7A)
5′-TTAGGGTTAGGGTTAGGGTTAGGG [TEL, reference compound] | competed strongly | crosslinked to a protein | clear transition | 66 °C | modulated the growth of cells | – | – | –
N.N.[Cl][Pt][Cl] [cis-platin, reference compound] | – | – | – | – | – | 29% | – | –
GRO15B: inactive G-rich oligonucleotide, SEQ ID NO: 22 (TTGGGGGGGGTGGGT; DNA, backbone not given here; further chemistry not fully specified) | – | – | no transition characteristic of intramolecular G-quartet formation | – | – | – | hybridized only weakly | inactive
